From ChEMBL document CHEMBL3987221, “The Australian National University Dept Of Immunology Pathogen Box Compounds Screened” (2018) come the findings set out here.

The source made the active and inactive calls. The rule behind the calls is not given here.

The target of assay [1] is T1, Porphobilinogen deaminase (Homo sapiens) (UniProt P08397).
T1 sequence (whole entry): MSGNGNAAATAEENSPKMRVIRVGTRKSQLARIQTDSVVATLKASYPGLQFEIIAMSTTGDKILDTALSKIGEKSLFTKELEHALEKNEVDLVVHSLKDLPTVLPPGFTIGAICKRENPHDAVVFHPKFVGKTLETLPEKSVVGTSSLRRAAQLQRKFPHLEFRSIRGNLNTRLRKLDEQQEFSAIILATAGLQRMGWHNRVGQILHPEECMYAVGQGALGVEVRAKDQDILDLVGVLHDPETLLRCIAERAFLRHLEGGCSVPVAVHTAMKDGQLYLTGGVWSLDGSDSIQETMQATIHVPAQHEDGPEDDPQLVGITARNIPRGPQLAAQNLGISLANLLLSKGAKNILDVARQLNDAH
As to conditions: at 100 µM.
Description: Compound was evaluated for the inhibition of human HMBS at 100uM

The target of assay [2] is T2, Ferrochelatase, mitochondrial (Homo sapiens) (UniProt P22830).
T2 sequence (whole entry): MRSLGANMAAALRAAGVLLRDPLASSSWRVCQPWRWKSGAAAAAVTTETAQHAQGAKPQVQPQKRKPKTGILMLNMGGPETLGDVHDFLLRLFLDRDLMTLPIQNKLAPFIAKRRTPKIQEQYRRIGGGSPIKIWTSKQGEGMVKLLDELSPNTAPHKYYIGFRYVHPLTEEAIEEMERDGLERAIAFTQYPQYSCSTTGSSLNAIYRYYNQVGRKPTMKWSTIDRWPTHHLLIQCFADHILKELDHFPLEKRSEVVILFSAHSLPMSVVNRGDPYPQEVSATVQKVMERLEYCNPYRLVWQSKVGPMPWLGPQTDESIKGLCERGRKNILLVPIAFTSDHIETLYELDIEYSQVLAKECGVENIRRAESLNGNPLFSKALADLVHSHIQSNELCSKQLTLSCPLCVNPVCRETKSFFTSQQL
As to conditions: at 10 µM.
Description: Compound was evaluated for the inhibition of human FECH at 10uM

On to `CS(=O)(=O)c1cccc(-c2cnc3[nH]cc(-c4ccc(CCC(=O)O)cc4)c3c2)c1`, for which the inhibition entry in assay [1] and in assay [2] was “inactive” in each case.

In the case of `COc1ccc(Cl)cc1NC(=O)CN(C)C(=O)c1cnn(-c2ccccc2)n1`, the inhibition result in assay [1] and in assay [2] was “inactive” in each case.

Regarding `Cc1nc(-c2ccccn2)nc(NCCc2ccc(S(C)(=O)=O)cc2)c1Cl`, the inhibition entry in assay [1] and in assay [2] was “inactive” in each case.

For the compound `Cc1ccc2[nH]c(C3CCCNC3)c(-c3ccncc3)c2c1` (stereo not given), the inhibition result in assay [1] and in assay [2] was “inactive” throughout.

For the compound `Cc1ccc(S(=O)(=O)n2cc(-c3ccnc(N)c3)c3cc(Br)cnc32)cc1`, the inhibition entry in assay [1] and in assay [2] was “inactive” each time.

`Cc1nc(-c2cccc(NCc3ccccc3)c2)[nH]c1C`: the inhibition result in assay [1] and in assay [2] was “inactive” each time.

Turning to `CCS(=O)(=O)N(Cc1ccco1)Cc1cc2ccc(C)cc2nc1O`, the inhibition entry in assay [1] and in assay [2] was “inactive” throughout.

For the compound `Clc1ccc(Cl)c(CO[C@H]2CCCC[C@@H]2n2ccnc2)c1`, the inhibition result in assay [1] and in assay [2] was “inactive” in each case.

`Cc1nc(-c2ccccn2)nc(N2CCC(Cc3ccccc3)C2)c1Cl` (stereo not given): the inhibition result in assay [1] and in assay [2] was “inactive” each time.

Regarding `Cc1nn(C)cc1C(C)Nc1nncc(-c2ccc(C(F)(F)F)cc2)n1` (stereo not given), the inhibition result in assay [1] and in assay [2] was “inactive” each time.

`O=C(NCCN1CCCC1)c1cc(NCCN2CCOCC2)nc2ccc(Cl)cc12`: the inhibition entry in assay [1] and in assay [2] was “inactive” each time.

For `COc1cccc(-c2cc3c(Nc4cccnc4)nccc3[nH]2)c1`, the inhibition entry in assay [1] and in assay [2] was “inactive” throughout.

Consider `CN1CCC(NCc2cccc(-c3ccc(S(=O)(=O)NCc4ccccc4)cc3)c2)CC1`, for which the inhibition result in assay [1] and in assay [2] was “inactive” in each case.

With `CC1CC1C(=O)NC1CCN(CC2(c3ccccc3)CCCCC2)CC1` (stereo not given), the inhibition entry in assay [1] and in assay [2] was “inactive” throughout.

Turning to `O=C(c1cc2ccccc2o1)N1CCN(Cc2ccc3c(c2)OCO3)CC1`, the inhibition result in assay [1] and in assay [2] was “inactive” each time.

Consider `CNC(=O)C1Cc2ccccc2N1C(=O)Cc1ccc(F)cc1` (stereo not given), for which the inhibition result in assay [1] and in assay [2] was “inactive” each time.

As for `O=C(C1CCN(c2cc(-n3cccc3)ncn2)CC1)N1CCc2ccccc2C1`, the inhibition entry in assay [1] and in assay [2] was “inactive” each time.

`CC(C)n1ncc2c(C(=O)NCC(c3cccs3)N3CCOCC3)cc(-c3ccccc3)nc21` (stereo not given): the inhibition result in assay [1] and in assay [2] was “inactive” each time.

Turning to `Cc1ccc2cc(C3NC(=O)c4ccccc4N3)c(Cl)nc2c1` (stereo not given), the inhibition entry in assay [1] and in assay [2] was “inactive” in each case.

Turning to `O=C(c1ccco1)N(CCCn1ccnc1)c1nc2c(Cl)cccc2s1`, the inhibition entry in assay [1] and in assay [2] was “inactive” in each case.

For the compound `COc1cncc(-c2cncc(N3CCN(c4ccncc4)CC3)n2)c1`, the inhibition result in assay [1] and in assay [2] was “inactive” each time.

In the case of `c1ccc(Oc2ccc(-c3cc(N4CCNCC4)[nH]n3)cc2)cc1`, the inhibition entry in assay [1] and in assay [2] was “inactive” throughout.

Consider `Nc1nc2cc(-c3cncc(Oc4ccc(F)cc4)c3)ccc2[nH]1`, for which the inhibition result in assay [1] and in assay [2] was “inactive” throughout.

With `COC(=O)c1c(NC(=O)c2c(F)c(F)c(F)c(F)c2F)sc2c1CCCCC2`, the inhibition entry in assay [1] and in assay [2] was “inactive” each time.

For `Clc1ccc(CN2CCN(C3=NCCN3)CC2)cc1Cl`, the inhibition result in assay [1] and in assay [2] was “inactive” each time.

On to `Clc1cccc(C(c2ccc(CN3CCNCC3)cc2)n2ccnc2)c1` (stereo not given), for which the inhibition entry in assay [1] and in assay [2] was “inactive” each time.

Regarding `COc1ccc(-c2cnc3ccc(NCc4ccc(S(N)(=O)=O)cc4)nn23)cn1`, the inhibition entry in assay [1] and in assay [2] was “inactive” throughout.

For `Cc1cccc(NC(=O)c2cc(S(=O)(=O)N(C)c3ccc(F)cc3)ccc2Cl)n1`, the inhibition entry in assay [1] and in assay [2] was “inactive” throughout.

Turning to `COc1ccc(Cn2cnc3c(-c4ccco4)nc(Cl)nc32)cc1`, the inhibition result in assay [1] and in assay [2] was “inactive” throughout.

On to `Cc1cnc(N2CCN[C@@H](Cc3ccccc3)C2)nc1Oc1ccc(-n2ccnc2)cc1`, for which the inhibition entry in assay [1] and in assay [2] was “inactive” in each case.

In the case of `CCCn1nnc(NC(=O)COc2ccc(C3CCCCC3)cc2)n1`, the inhibition entry in assay [1] and in assay [2] was “inactive” each time.

Turning to `CC(=O)N1CCc2cc3nc(C)cc(C)c3cc21`, the inhibition result in assay [1] and in assay [2] was “inactive” each time.

In the case of `COc1ccc(C2(C(=O)Nc3ccc(Br)cc3)CCCC2)cc1`, the inhibition result in assay [1] and in assay [2] was “inactive” throughout.

Consider `CC(C)(C)CN1C(=O)C(c2ccccc2)(c2ccccc2)N=C1N`, for which the inhibition entry in assay [1] and in assay [2] was “inactive” each time.

For `CO[C@@H](C(=O)N1Cc2[nH]nc(NC(=O)c3ccc(N4CCN(C)CC4)cc3)c2C1)c1ccccc1`, the inhibition entry in assay [1] and in assay [2] was “inactive” each time.

For the compound `CCc1ccc(S(=O)(=O)Nc2cc(CN3CCN(CCC(C)C)CC3)ccc2C)cc1`, the inhibition result in assay [1] and in assay [2] was “inactive” throughout.

In the case of `COc1ccc(N(CCc2cccc(C)n2)C(=O)C2CCCCC2)cc1`, the inhibition result in assay [1] and in assay [2] was “inactive” in each case.

Consider `c1cncc(NCc2ccc(-c3cc4ccncc4cc3OC3CCNCC3)s2)c1`, for which the inhibition result in assay [1] and in assay [2] was “inactive” throughout.

As to `c1ccc(-c2cc(N3CCCCC3)c3ccccc3n2)nc1`, the inhibition entry in assay [1] and in assay [2] was “inactive” in each case.

With `COc1cc(-c2cc(-c3ccc(S(C)(=O)=O)cc3)cnc2N)ccc1O`, the inhibition result in assay [1] and in assay [2] was “inactive” each time.

Turning to `COc1ccccc1C(C)NCC(=O)Nc1cc(C(F)(F)F)ccc1Cl` (stereo not given), the inhibition result in assay [1] and in assay [2] was “inactive” each time.

Take `c1ccc(Oc2ccc(-c3cc(CN4CCOCC4)[nH]n3)cc2)cc1`: the inhibition entry in assay [1] and in assay [2] was “inactive” in each case.

Consider `CCOC(=O)c1c(NC(=O)c2c(F)c(F)c(F)c(F)c2F)sc(C(N)=O)c1C`, for which the inhibition result in assay [1] and in assay [2] was “inactive” in each case.

On to `COc1ccc(-c2nc(-c3cccc(NC(=O)Cc4ccc(F)cc4)c3)no2)cc1OC`, for which the inhibition result in assay [1] and in assay [2] was “inactive” each time.

Regarding `O=C(Nc1ccccc1-c1nc2c(C(=O)O)cccc2o1)c1ccccc1`, the inhibition entry in assay [1] and in assay [2] was “inactive” each time.

Consider `C[C@]1(COc2ccc(N3CCC(Oc4ccc(OC(F)(F)F)cc4)CC3)cc2)Cn2cc([N+](=O)[O-])nc2O1`, for which the inhibition entry in assay [1] and in assay [2] was “inactive” throughout.

For `COc1cc(OC)cc(C(=O)NCC2Cc3cc(Cl)cc(-c4ccncc4)c3O2)c1` (stereo not given), the inhibition entry in assay [1] and in assay [2] was “inactive” in each case.

With `C[C@H](C(N)=O)N1CCCC[C@H]1c1ccc(OCc2cccc(F)c2)cc1`, the inhibition result in assay [1] and in assay [2] was “inactive” in each case.

Consider `c1ccc(Oc2ccc(-c3cncc(-c4ccc5[nH]ccc5c4)n3)cc2)cc1`, for which the inhibition entry in assay [1] and in assay [2] was “inactive” throughout.

As to `FC(F)(F)c1ccc(N(c2cccnc2)C2CCN(c3ccc(C(F)(F)F)cn3)CC2)cc1`, the inhibition entry in assay [1] and in assay [2] was “inactive” throughout.

Regarding `NS(=O)(=O)c1cncc(-c2ccc3nccc(-c4cn[nH]c4)c3n2)c1`, the inhibition result in assay [1] and in assay [2] was “inactive” throughout.

For the compound `COc1ccc(CCN2CCC(NCc3cccc(N(C)C)c3)CC2)cc1`, the inhibition entry in assay [1] and in assay [2] was “inactive” throughout.

As to `Cc1cc(Cl)c(S(=O)(=O)N2CCCC2)cc1OCC(=O)NC1CCCCC1`, the inhibition result in assay [1] and in assay [2] was “inactive” each time.

For `CC1CCCN(C(=O)C(C)Nc2cc(Cl)ccc2N2CCOCC2)C1` (stereo not given), the inhibition entry in assay [1] and in assay [2] was “inactive” throughout.

For `COc1ccc2nc(C)cc(OCC(=O)NCc3ccccc3)c2c1`, the inhibition result in assay [1] and in assay [2] was “inactive” in each case.
